{
  "source": "patent US8729112B2",
  "about": "“Antimicrobial haloalkyl heterocycle compounds” (NovaBay Pharmaceuticals, Inc., priority 2011, dated 2014)",
  "type_in_all_cases": "cell-based",
  "key": {"[1]": {"system": "Escherichia coli (ATCC 25922)", "test": "Antimicrobial activity (MBC), E. coli", "conditions": "saline pH 7, 1 h at room temperature, 1.0×10^5 to 1.0×10^6 CFU/mL", "method": "(§1) Antimicrobial activity of certain compounds of the present disclosure was tested against Escherichia coli (ATCC 25922), Staphylococcus aureus (ATCC 29213), and Candida albicans (ATCC 10231). The microbial cultures were diluted in sterile saline pH 7 to prepare inocula. Test compounds were titrated by stepwise two-fold dilutions in sterile saline pH 7. A total of 1.0×10^5 to 1.0×10^6 Colony Forming Units (CFU)/mL microbe was added to each tube, mixed by gentle vortexing, and then incubated at room temperature for 1 h. Microbial plating on Petri dishes (Tryptic Soy agar or Saboraud's Dextrose agar) was performed immediately after the designated exposure after neutralization of the test article dilutions in Dey-Engley Broth. Plates were incubated at 37° C., and the numbers of microbes were counted by direct colony count to quantitate the surviving microbes as CFU/mL. Positive growth controls were made with sterile 0.9% saline. Compounds were dissolved phosphate buffered saline (PBS) at pH 7 (using HCl and/or NaOH as needed). All compounds were tested three times."}, "[2]": {"system": "Staphylococcus aureus (ATCC 29213)", "test": "Antimicrobial activity (MBC), S. aureus", "conditions": "saline pH 7, 1 h at room temperature, 1.0×10^5 to 1.0×10^6 CFU/mL", "method": "as §1"}, "[3]": {"system": "Candida albicans (ATCC 10231)", "test": "Antimicrobial activity (MFC), C. albicans", "conditions": "saline pH 7, 1 h at room temperature, 1.0×10^5 to 1.0×10^6 CFU/mL", "method": "as §1"}, "L929 cells": {"system": "L929 cells", "test": "Cytotoxicity CT50 in L929 cells"}},
  "data": [
    {"smiles": "CC1(CCl)COC(=O)N1Cl", "note": "(stereo not shown) [Compound 36-01, 3-Chloro-4-(chloromethyl)-4-methyloxazolidin-2-one]", "values": [
      {"measurement": "MBC/MFC E. coli", "setting": "[1]", "result": 0.5, "unit": "µg/mL"},
      {"measurement": "MBC/MFC S. aureus", "setting": "[2]", "result": 0.5, "unit": "µg/mL"},
      {"measurement": "MBC/MFC C. albicans", "setting": "[3]", "result": ">128", "unit": "µg/mL"},
      {"measurement": "CT50 L929 cells", "setting": "L929 cells", "result": 0.09, "unit": "mM"}
    ]},
    {"smiles": "CN1CC(C)(CCl)N(Cl)C1=O", "note": "(stereo not shown) [Compound 36-02, 3-Chloro-4-(chloromethyl)-1,4-dimethylimidazolidin-2-one]", "values": [
      {"measurement": "MBC/MFC E. coli", "setting": "[1]", "result": 8, "unit": "µg/mL"},
      {"measurement": "MBC/MFC S. aureus", "setting": "[2]", "result": 16, "unit": "µg/mL"},
      {"measurement": "MBC/MFC C. albicans", "setting": "[3]", "result": 512, "unit": "µg/mL"},
      {"measurement": "CT50 L929 cells", "setting": "L929 cells", "result": 0.04, "unit": "mM"}
    ]},
    {"smiles": "CC1(CCl)CCC(=O)N1Cl", "note": "(stereo not shown) [Compound 36-03, 1-chloro-5-(chloromethyl)-5-methylpyrrolidin-2-one]", "values": [
      {"measurement": "MBC/MFC E. coli", "setting": "[1]", "result": 2, "unit": "µg/mL"},
      {"measurement": "MBC/MFC S. aureus", "setting": "[2]", "result": 128, "unit": "µg/mL"},
      {"measurement": "MBC/MFC C. albicans", "setting": "[3]", "result": ">512", "unit": "µg/mL"},
      {"measurement": "CT50 L929 cells", "setting": "L929 cells", "result": 0.026, "unit": "mM"}
    ]},
    {"smiles": "CC1(CBr)COC(=O)N1Cl", "note": "(stereo not shown) [Compound 36-05, 4-(bromomethyl)-3-chloro-4-methyloxazolidin-2-one]", "values": [
      {"measurement": "MBC/MFC E. coli", "setting": "[1]", "result": 1, "unit": "µg/mL"},
      {"measurement": "MBC/MFC S. aureus", "setting": "[2]", "result": 0.5, "unit": "µg/mL"},
      {"measurement": "MBC/MFC C. albicans", "setting": "[3]", "result": 64, "unit": "µg/mL"},
      {"measurement": "CT50 L929 cells", "setting": "L929 cells", "result": 0.1, "unit": "mM"}
    ]},
    {"smiles": "O=C1OCC(CCl)(CCl)N1Cl", "note": "[Compound 36-06, 3-chloro-4,4-bis(chloromethyl)oxazolidin-2-one]", "values": [
      {"measurement": "MBC/MFC E. coli", "setting": "[1]", "result": 1, "unit": "µg/mL"},
      {"measurement": "MBC/MFC S. aureus", "setting": "[2]", "result": 0.5, "unit": "µg/mL"},
      {"measurement": "MBC/MFC C. albicans", "setting": "[3]", "result": 16, "unit": "µg/mL"},
      {"measurement": "CT50 L929 cells", "setting": "L929 cells", "result": 0.4, "unit": "mM"}
    ]},
    {"smiles": "CC1(CF)COC(=O)N1Cl", "note": "(stereo not shown) [Compound 36-07, 3-chloro-4-(fluoromethyl)-4-methyl-oxazolidin-2-one]", "values": [
      {"measurement": "MBC/MFC E. coli", "setting": "[1]", "result": 0.5, "unit": "µg/mL"},
      {"measurement": "MBC/MFC S. aureus", "setting": "[2]", "result": 0.5, "unit": "µg/mL"},
      {"measurement": "MBC/MFC C. albicans", "setting": "[3]", "result": 256, "unit": "µg/mL"},
      {"measurement": "CT50 L929 cells", "setting": "L929 cells", "result": 0.142, "unit": "mM"}
    ]},
    {"smiles": "CC1(CC(F)(F)F)COC(=O)N1Cl", "note": "(stereo not shown) [Compound 36-08, 3-chloro-4-(2,2,2-trifluoroethyl)-4-methyl-oxazolidin-2-one]", "values": [
      {"measurement": "MBC/MFC E. coli", "setting": "[1]", "result": 4, "unit": "µg/mL"},
      {"measurement": "MBC/MFC S. aureus", "setting": "[2]", "result": 1, "unit": "µg/mL"},
      {"measurement": "MBC/MFC C. albicans", "setting": "[3]", "result": 128, "unit": "µg/mL"},
      {"measurement": "CT50 L929 cells", "setting": "L929 cells", "result": 0.232, "unit": "mM"}
    ]}
  ]
}
